Measured values reported in patent US20140005163A1 (NOVARTIS AG, priority 2010, published 2014).
In brackets after ≈: the same amount, converted by molar mass.

Legend:
[1] = Solubility at pH 6.8; format: physicochemical; conditions: pH 6.8, aqueous buffer, thermodynamic from solid; read-out: solubility
Method in brief: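 Solubility was measured at pH 6.8 following the cited Zhou et al. (2007) procedure.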

[2] = molecular target: T1, PI3K gamma (Homo sapiens, UniProt P48736); test: PI3K gamma kinase assay (Kinase-Glo luminescence); format: biochemical
T1 construct: His tag (C); made in house; host or cells: baculovirus (pVL1393); Tn5 or TiniPro insect cells; construct from Roger Williams lab, MRC LMB
Method in brief: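 Luminescent ATP-depletion (Kinase-Glo) assay with 150 nM PI3Kγ, 1 μM ATP and 10 μg/mL phosphatidylinositol in 10 mM Tris-HCl pH 7.5, 3 mM MgCl2, 50 mM NaCl, 0.05% CHAPS, 1 mM DTT; 120 min at room temperature. Eight-point dilutions; IC50 by four-parameter logistic fit.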

[3] = Cellular CaCo2 permeability assay from apical to basal (A-B); format: in vitro ADME; conditions: human, Caco-2, read-out: Pe A-B (permeability)
Text: The permeability in 10^−6 cm/s of compounds of formula (I) have been confirmed for selected example using a cellular CaCo2 permeability assay from apical to basal (A-B): […]

T1 sequence (P48736 144-1102 limits assumed): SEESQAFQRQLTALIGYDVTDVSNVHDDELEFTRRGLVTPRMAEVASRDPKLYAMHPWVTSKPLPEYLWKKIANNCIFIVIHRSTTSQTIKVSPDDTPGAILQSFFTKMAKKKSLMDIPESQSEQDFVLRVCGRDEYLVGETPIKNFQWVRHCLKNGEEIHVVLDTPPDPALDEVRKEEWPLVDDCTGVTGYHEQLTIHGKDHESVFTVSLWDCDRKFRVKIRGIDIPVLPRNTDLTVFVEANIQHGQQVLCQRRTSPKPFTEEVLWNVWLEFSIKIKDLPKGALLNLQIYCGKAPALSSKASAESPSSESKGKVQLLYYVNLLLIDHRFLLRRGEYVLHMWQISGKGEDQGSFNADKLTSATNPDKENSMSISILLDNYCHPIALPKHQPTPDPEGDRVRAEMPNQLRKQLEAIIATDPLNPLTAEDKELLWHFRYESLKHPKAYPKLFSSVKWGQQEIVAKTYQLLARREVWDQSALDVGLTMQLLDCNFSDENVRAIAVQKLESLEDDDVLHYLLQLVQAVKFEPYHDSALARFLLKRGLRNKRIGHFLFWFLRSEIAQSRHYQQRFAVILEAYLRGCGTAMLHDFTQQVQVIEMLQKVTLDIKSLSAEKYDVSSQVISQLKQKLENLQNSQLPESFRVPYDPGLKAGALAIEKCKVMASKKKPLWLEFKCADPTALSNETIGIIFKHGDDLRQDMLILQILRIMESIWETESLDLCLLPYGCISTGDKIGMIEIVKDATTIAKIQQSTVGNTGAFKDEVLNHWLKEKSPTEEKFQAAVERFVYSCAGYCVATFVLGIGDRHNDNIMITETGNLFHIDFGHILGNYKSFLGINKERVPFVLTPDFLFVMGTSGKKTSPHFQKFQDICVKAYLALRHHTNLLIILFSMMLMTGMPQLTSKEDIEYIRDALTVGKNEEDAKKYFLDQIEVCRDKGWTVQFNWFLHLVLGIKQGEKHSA

COc1ccc(-c2ccc3ncc4c(c3c2)n(-c2c(C)nn(C)c2C)c(=O)n4C)cc1OC [Example 1.9, 8-(3,4-Dimethoxy-phenyl)-3-methyl-1-(1,3,5-trimethyl-1H-pyrazol-4-yl)-1,3-dihydro-imidazo[4,5-c]quinolin-2-one]
solubility [1]: 315 µg/mL (≈ 710 µM)
IC50 [2]: 0.1 µM

COc1ccc(-c2ccc3ncc4c(c3c2)n(-c2cnn(C)c2C)c(=O)n4C)cn1 [Example 2.9, 1-(1,5-Dimethyl-1H-pyrazol-4-yl)-8-(6-methoxy-pyridin-3-yl)-3-methyl-1,3-dihydro-imidazo[4,5-c]quinolin-2-one]
IC50 [2]: 0.206 µM

CCOc1ccc(-c2ccc3ncc4c(c3c2)n(-c2cn(C)nc2Cl)c(=O)n4C)cn1 [Example 3.8, 1-(3-Chloro-1-methyl-1H-pyrazol-4-yl)-8-(6-ethoxy-pyridin-3-yl)-3-methyl-1,3-dihydro-imidazo[4,5-c]quinolin-2-one]
IC50 [2]: 0.529 µM

Cc1c(-n2c(=O)n(C)c3cnc4ccc(-c5ccc(N(C)C)nc5)cc4c32)cnn1C [Example 4.4, 8-(6-Dimethylamino-pyridin-3-yl)-1-(1,5-dimethyl-1H-pyrazol-4-yl)-3-methyl-1,3-dihydro-imidazo[4,5-c]quinolin-2-one]
IC50 [2]: 0.341 µM

Cc1nn(C(C)C)cc1-n1c(=O)n(C)c2cnc3ccc(-c4cnc(N(C)C)nc4)cc3c21 [Example 6.1, 8-(2-Dimethylamino-pyrimidin-5-yl)-1-(1-isopropyl-3-methyl-1H-pyrazol-4-yl)-3-methyl-1,3-dihydro-imidazo[4,5-c]quinolin-2-one]
IC50 [2]: 0.182 µM

Cc1nn(C)cc1-n1c(=O)n(C)c2cnc3ccc(-c4cccnc4)cc3c21 [Example 10.2, 1-(1,3-Dimethyl-1H-pyrazol-4-yl)-3-methyl-8-pyridin-3-yl-1,3-dihydro-imidazo[4,5-c]quinolin-2-one]
solubility [1]: 42 µg/mL (≈ 113 µM)
IC50 [2]: 0.129 µM

CCn1cc(-n2c(=O)n(C)c3cnc4ccc(-c5ccc(CO)nc5)cc4c32)c(C)n1 [Example 16.1, 1-(1-ethyl-3-methyl-1H-pyrazol-4-yl)-8-(6-hydroxymethyl-pyridin-3-yl)-3-methyl-1,3-dihydro-imidazo[4,5-c]quinolin-2-one]
solubility [1]: 75 µg/mL (≈ 181 µM)
IC50 [2]: 0.415 µM

Cc1nn(C)cc1-n1c(=O)n(C)c2cnc3ccc(-c4cncc(S(C)(=O)=O)c4)cc3c21 [Example 22, 1-(1,3-Dimethyl-1H-pyrazol-4-yl)-8-(5-methanesulfonyl-pyridin-3-yl)-3-methyl-1,3-dihydro-imidazo[4,5-c]quinolin-2-one]
IC50 [2]: 0.073 µM

Cc1nn(C)cc1-n1c(=O)n(C)c2cnc3ccc(-c4cncnc4)cc3c21 [Example 26, 1-(1,3-Dimethyl-1H-pyrazol-4-yl)-3-methyl-8-pyrimidin-5-yl-1,3-dihydro-imidazo[4,5-c]quinolin-2-one]
solubility [1]: 242 µg/mL (≈ 652 µM)
IC50 [2]: 0.777 µM

Cc1nn(C)cc1-n1c(=O)n(C)c2cnc3ccc(-c4cc(O)cc(C(F)(F)F)c4)cc3c21 [Example 34, 1-(1,3-Dimethyl-1H-pyrazol-4-yl)-8-(3-hydroxy-5-trifluoromethyl-phenyl)-3-methyl-1,3-dihydro-imidazo[4,5-c]quinolin-2-one]
IC50 [2]: 0.082 µM

Cc1nn(C)cc1-n1c(=O)n(C)c2cnc3ccc(-c4cnc5[nH]ccc5c4)cc3c21 [Example 36, 1-(1,3-dimethyl-1H-pyrazol-4-yl)-3-methyl-8-(1H-pyrrolo[2,3-b]pyridin-5-yl)-1,3-dihydro-imidazo[4,5-c]quinolin-2-one]
IC50 [2]: 0.118 µM

Cc1nn(C)cc1-n1c(=O)n(C)c2cnc3ccc(-c4ccc(OCC5CC5)nc4)cc3c21 [Example 42, 8-(6-Cyclopropylmethoxy-pyridin-3-yl)-1-(1,3-dimethyl-1H-pyrazol-4-yl)-3-methyl-1,3-dihydro-imidazo[4,5-c]quinolin-2-one]
IC50 [2]: 0.59 µM

CNC(=O)c1ccc(-c2ccc3ncc4c(c3c2)n(-c2cn(C)nc2Cl)c(=O)n4C)cc1 [Example 43.2, 4-[1-(3-Chloro-1-methyl-1H-pyrazol-4-yl)-3-methyl-2-oxo-2,3-dihydro-1H-imidazol[4,5-c]quinolin-8-yl]-N-methyl-benzamide]
IC50 [2]: 0.114 µM

Cc1nn(C)cc1-n1c(=O)n(C)c2cnc3ccc(-c4ccc5c(c4)CCN5C)cc3c21 [Example 50, 1-(1,3-Dimethyl-1H-pyrazol-4-yl)-3-methyl-8-(1-methyl-2,3-dihydro-1H-indol-5-yl)-1,3-dihydro-imidazo[4,5-c]quinolin-2-one]
IC50 [2]: 0.334 µM

CCCOc1ccc(-c2ccc3ncc4c(c3c2)n(-c2cn(C)nc2C)c(=O)n4C)cn1 [Example 55, 1-(1,3-Dimethyl-1H-pyrazol-4-yl)-3-methyl-8-(6-propoxy-pyridin-3-yl)-1,3-dihydro-imidazo[4,5-c]quinolin-2-one]
solubility [1]: 3 µg/mL (≈ 7 µM)
IC50 [2]: 0.343 µM

CCOc1cccc(-c2ccc3ncc4c(c3c2)n(-c2cn(C)nc2C)c(=O)n4C)c1 [Example 57, 1-(1,3-Dimethyl-1H-pyrazol-4-yl)-8-(3-ethoxy-phenyl)-3-methyl-1,3-dihydro-imidazo[4,5-c]quinolin-2-one]
IC50 [2]: 0.197 µM

CCNc1cc(-c2ccc3ncc4c(c3c2)n(-c2cn(C)nc2C)c(=O)n4C)cnc1C [Example 87.1, 1-(1,3-Dimethyl-1H-pyrazol-4-yl)-8-(5-ethylamino-6-methyl-pyridin-3-yl)-3-methyl-1,3-dihydro-imidazo[4,5-c]quinolin-2-one]
Papp A→B [3]: 17 ×10⁻⁶ cm/s
solubility [1]: 410 µg/mL (≈ 959 µM)

Cc1nn(C)cc1-n1c(=O)n(C)c2cnc3ccc(-c4ccc(N5CCN(C)CC5)nc4)cc3c21 [Example 96, 1-(1,3-Dimethyl-1H-pyrazol-4-yl)-3-methyl-8-[6-(4-methyl-piperazin-1-yl)-pyridin-3-yl]-1,3-dihydro-imidazo[4,5-c]quinolin-2-one]
Papp A→B [3]: 6 ×10⁻⁶ cm/s
solubility [1]: > 469 µg/mL

COc1ccc(-c2ccc3ncc4c(c3c2)n(-c2cn(CC(=O)N(C)C)nc2C)c(=O)n4C)cn1 [Example 102, 2-{4-[8-(6-Methoxy-pyridin-3-yl)-3-methyl-2-oxo-2,3-dihydro-imidazo[4,5-c]quinolin-1-yl]-3-methyl-pyrazol-1-yl}-N,N-dimethyl-acetamide]
Papp A→B [3]: 7.7 ×10⁻⁶ cm/s
solubility [1]: 7 µg/mL (≈ 14.8 µM)
IC50 [2]: 0.246 µM

CCn1cc(-n2c(=O)n(C)c3cnc4ccc(-c5ccc(COC)nc5)cc4c32)c(C)n1 [Example 104, 1-(1-Ethyl-3-methyl-1H-pyrazol-4-yl)-8-(6-methoxymethyl-pyridin-3-yl)-3-methyl-1,3-dihydro-imidazo[4,5-c]quinolin-2-one]
Papp A→B [3]: 20.5 ×10⁻⁶ cm/s
solubility [1]: 4 µg/mL (≈ 9.33 µM)
IC50 [2]: 0.582 µM

Cc1nn(C(C)C)cc1-n1c(=O)n(C)c2cnc3ccc(-c4ccc(C(N)=O)nc4)cc3c21 [Example 112, 5-[1-(1-Isopropyl-3-methyl-1H-pyrazol-4-yl)-3-methyl-2-oxo-2,3-dihydro-1H-imidazo[4,5-c]quinolin-8-yl]-pyridine-2-carboxylic acid amide]
IC50 [2]: 0.471 µM

Cc1nn(C)cc1-n1c(=O)n(C)c2cnc3ccc(-c4cccc(N(C)S(C)(=O)=O)c4)cc3c21 [Example 117, N-{3-[1-(1,3-Dimethyl-1H-pyrazol-4-yl)-3-methyl-2-oxo-2,3-dihydro-1H-imidazo[4,5-c]quinolin-8-yl]-phenyl}-N-methyl-methanesulfonamide]
solubility [1]: 3 µg/mL (≈ 6.3 µM)
IC50 [2]: 0.225 µM

CNc1ccc(-c2ccc3ncc4c(c3c2)n(-c2cn(C(C)C)nc2C)c(=O)n4C)cn1 [Example 118.1, 1-(1-isopropyl-3-methyl-1H-pyrazol-4-yl)-3-methyl-8-(6-methylamino-pyridin-3-yl)-1,3-dihydro-imidazo[4,5-c]quinolin-2-one]
solubility [1]: 3 µg/mL (≈ 7.02 µM)
IC50 [2]: 0.164 µM

CNc1ccc(-c2ccc3ncc4c(c3c2)n(-c2cn(CC(=O)N(C)C)nc2C)c(=O)n4C)cn1 [Example 118.3, N,N-Dimethyl-2-{3-methyl-4-[3-methyl-8-(6-methylamino-pyridin-3-yl)-2-oxo-2,3-dihydro-imidazo[4,5-c]quinolin-1-yl]-pyrazol-1-yl}-acetamide]
solubility [1]: 21 µg/mL (≈ 44.6 µM)
IC50 [2]: 0.138 µM

CCOC(C)(C)c1cncc(-c2ccc3ncc4c(c3c2)n(-c2cn(C)nc2C)c(=O)n4C)c1 [Example 240, 1-(1,3-Dimethyl-1H-pyrazol-4-yl)-8-[5-(1-ethoxy-1-methyl-ethyl)-pyridin-3-yl]-3-methyl-1,3-dihydro-imidazo[4,5-c]quinolin-2-one]
solubility [1]: 4 µg/mL (≈ 8.76 µM)

C=CCn1c(=O)n(-c2cn(C)nc2C)c2c3cc(-c4cncc(N)c4)ccc3ncc21 [Example 246, 3-Allyl-8-(5-amino-pyridin-3-yl)-1-(1,3-dimethyl-1H-pyrazol-4-yl)-1,3-dihydro-imidazo[4,5-c]quinolin-2-one]
solubility [1]: 75 µg/mL (≈ 182 µM)

CCN(CC)C(=O)Cn1cc(-n2c(=O)n(C)c3cnc4ccc(-c5cnc(N6CCCC6)nc5)cc4c32)c(C)n1 [Example 247.1, N,N-Diethyl-2-{3-methyl-4-[3-methyl-2-oxo-8-(2-pyrrolidin-1-yl-pyrimidin-5-yl)-2,3-dihydro-imidazo[4,5-c]quinolin-1-yl]-pyrazol-1-yl}-acetamide]
solubility [1]: 69 µg/mL (≈ 128 µM)
